Laboratory results: US7572818B2, “2-pyridylethylbenzamide derivative” (Bayer Cropscience S.A., priority 2002, dated 2009)

Assays:
Pyrenophora teres = assay: In vivo test of activity on Pyrenophora teres (barley net blotch); conditions: preventive spray 24 h before inoculation
Protocol: In Vivo Test of Activity on Pyrenophora teres (Barley Net Blotch)
(§1) An aqueous solution of the active material to be tested is prepared at a concentration of 2 g/l by grinding in solution 1 or solution 2:
(§2) • Water • Tween 80 diluted to 10% in water: 5 μl/mg of active material • Clay in a sufficient amount for active material+clay to equal 100 mg; Solution 2
(§3) Concentrated solution containing surfactants and adjuvants conventionally used: 200 μl/mg of active material.
(§4) The aqueous solution is diluted with water so as to obtain the desired concentration.
Barley plants of the Express variety are sown in a 50/50 pozzolan/peat substrate and maintained at 12° C. The treatment is carried out at the 1-leaf stage (10 cm) by spraying the aqueous suspension. The untreated control plants are sprayed with water.
24 hours after treatment, the plants are inoculated by spraying a solution of Pyrenophora teres spores (10 000 spores/ml) originating from a 10-day culture.
The barley plants are then maintained at 18° C. in a humid atmosphere. The effectiveness of the products is evaluated relative to the control plants after eight to fifteen days of incubation.
(§5) The effectiveness of the molecules is estimated, at 500 g/ha, 250 g/ha or 330 ppm, by the percentage of control relative to untreated plants. Under these conditions, good effectiveness is defined as more than 80% effectiveness. Average effectiveness is defined as an effectiveness between 50 and 80%. Poor effectiveness is defined as an effectiveness between 10 and 50% and zero effectiveness is defined as less than 10% effectiveness.

Botrytis cinerea = assay: In vivo test of activity on Botrytis cinerea on cucumber; conditions: preventive spray 24 h before inoculation; for pest or weed control at 250 g/ha: Botrytis cinerea, topical, read-out: effectiveness (percentage of control relative to untreated plants)
Protocol: In Vivo Test of Activity on Botrytis cinerea on Cucumber
as §1, §2, §3, §4
Cucumbers of the Marketer variety are sown in a 50/50 pozzolan/peat substrate and maintained at 18-22° C. The treatment is carried out by spraying the aqueous suspension. The untreated control plants are sprayed with water.
24 hours after treatment, the plants are inoculated by spraying a solution of Botrytis cinerea spores (150 000 spores/ml) originating from a 15-day culture.
The cucumber plants are then maintained at 11-15° C. in a humid atmosphere. The effectiveness of the products is evaluated relative to the control plants after seven to eight days of incubation.
as §5

Alternaria brassicae = assay: In vivo test of activity on Alternaria brassicae (crucifer black spot) on radish; conditions: preventive spray 24 h before inoculation
Protocol: In Vivo Test of Activity on Alternaria brassicae (Crucifer Black Spot)
as §1, §2, §3, §4
Radishes of the Pernot variety are sown in a 50/50 pozzolan/peat substrate and maintained at 18-22° C. The treatment is carried out by spraying the aqueous suspension. The untreated control plants are sprayed with water. 24 hours after treatment, the plants are inoculated by spraying a solution of Alternaria brassicae spores (40 000 spores/ml) originating from a 12-day culture.
The radish plants are then maintained at 18-20° C. in a humid atmosphere. The effectiveness of the products is evaluated relative to the control plants after seven to eight days of incubation.
as §5

Septoria tritici = assay: In vivo test of activity on Septoria tritici (wheat septoria disease); conditions: 500 g/ha, preventive spray 24 h before inoculation
Protocol: In Vivo Test of Activity on Septoria tritici (Wheat Septoria Disease
as §1, §2, §3, §4
Wheat plants of the Scipion variety are sown in a 50/50 pozzolan/peat substrate and maintained at 12° C. The treatment is carried out at the 1-leaf stage (10 cm) by spraying the aqueous suspension. The untreated control plants are sprayed with water.
24 hours after treatment, the plants are inoculated by spraying a solution of Septoria tritici spores (500 000 spores/ml) from a 7-day culture.
The wheat plantlets are then maintained at 18-20° C. in a humid atmosphere for 72 hours, and then at 90% relative humidity. The effectiveness of the products is evaluated relative to the control plants, 21 to 28 days after the contamination.
as §5

Structure (SMILES) | effectiveness (percentage of control relative to untreated plants) (Pyrenophora teres; 330 ppm) | effectiveness (percentage of control relative to untreated plants) (Botrytis cinerea; 330 ppm) | effectiveness (percentage of control relative to untreated plants) (Alternaria brassicae; 250 g/ha) | effectiveness (percentage of control relative to untreated plants) (Alternaria brassicae; 330 ppm) | effectiveness (percentage of control relative to untreated plants) (Pyrenophora teres; 500 g/ha) | effectiveness (percentage of control relative to untreated plants) (Alternaria brassicae; 500 g/ha) | effectiveness (percentage of control relative to untreated plants) (Septoria tritici) | further results
O=C(NCCc1ncc(C(F)(F)F)cc1Cl)c1c(F)cccc1C(F)(F)F [Compound A-173] | good to average | good to average | good to average | good to average | – | – | – | –
O=C(NCCc1ncc(C(F)(F)F)cc1Cl)c1c(F)cccc1F [Compound A-25] | – | – | – | – | good to average | good to average | good to average | effectiveness (percentage of control relative to untreated plants) (Botrytis cinerea; 500 g/ha): good to average
Cc1ccccc1C(=O)NCCc1ncc(C(F)(F)F)cc1Cl [Compound A-9] | – | – | – | – | good to average | good to average | – | effectiveness (percentage of control relative to untreated plants) (Botrytis cinerea; 500 g/ha): good to average
O=C(NCCc1ncc(C(F)(F)F)cc1Cl)c1ccc(F)cc1C(F)(F)F [Compound A-73] | good to average | good to average | good to average | good to average | – | – | – | effectiveness (percentage of control relative to untreated plants) (Pyrenophora teres; 250 g/ha): good to average; effectiveness (percentage of control relative to untreated plants) (Botrytis cinerea; 250 g/ha): good to average
O=C(NCCc1ncc(C(F)(F)F)cc1Cl)c1ccccc1Cl [Compound A-2] | – | – | – | – | good to average | good to average | good to average | effectiveness (percentage of control relative to untreated plants) (Botrytis cinerea; 500 g/ha): good to average
COc1ccccc1C(=O)NCCc1ncc(C(F)(F)F)cc1Cl [Compound A-7] | – | – | – | – | good to average | good to average | good to average | effectiveness (percentage of control relative to untreated plants) (Botrytis cinerea; 500 g/ha): good to average
COc1ccc(C(=O)NCCc2ncc(C(F)(F)F)cc2Cl)cc1 [Compound A-16] | – | – | – | – | – | – | good to average | –
CCCc1ccc(C(=O)NCCc2ncc(C(F)(F)F)cc2Cl)cc1 [Compound A-22] | – | – | – | – | – | – | good to average | –
O=C(NCCc1ncc(C(F)(F)F)cc1Cl)c1ccc(F)cc1F [Compound A-5] | – | – | – | – | good to average | – | good to average | –
O=C(NCCc1ncc(C(F)(F)F)cc1Cl)c1c(F)cccc1I [Compound A-174] | good to average | good to average | – | good to average | – | – | – | –
O=C(NCCc1ncc(C(F)(F)F)cc1Cl)c1ccccc1F [Compound A-4] | – | – | – | – | good to average | good to average | good to average | –
O=C(NCCc1ncc(C(F)(F)F)cc1Cl)c1ccccc1C(F)(F)F [Compound A-20] | good to average | good to average | good to average | good to average | good to average | good to average | good to average | effectiveness (percentage of control relative to untreated plants) (Pyrenophora teres; 250 g/ha): good to average; effectiveness (percentage of control relative to untreated plants) (Botrytis cinerea; 250 g/ha): good to average; effectiveness (percentage of control relative to untreated plants) (Botrytis cinerea; 500 g/ha): good to average
CCc1ccc(C(=O)NCCc2ncc(C(F)(F)F)cc2Cl)cc1 [Compound A-21] | – | – | – | – | – | – | good to average | –
CNC(=O)C(Cc1ncc(C(F)(F)F)cc1Cl)NC(=O)c1ccc(-c2ccccc2)cc1 (stereo not drawn) [compound 316, N-{1-methylcarbamoyl-2-[3-chloro-5-(trifluoromethyl)-2-pyridinyl]ethyl}-4-phenylbenzamide, reference compound] | – | – | poor (Poor effectiveness is defined as an effectiveness between 10 and 50%) | – | – | – | – | pest or weed control at 250 g/ha (Botrytis cinerea; 250 g/ha): < 10%
CCCCc1ccc(C(=O)NCCc2ncc(C(F)(F)F)cc2Cl)cc1 [Compound A-23] | – | – | – | – | – | – | good to average | –
CCNC(=O)C(Cc1ncc(C(F)(F)F)cc1Cl)NC(=O)c1cccc([N+](=O)[O-])c1 (stereo not drawn) [compound 307, N-{1-ethylcarbamoyl-2-[3-chloro-5-(trifluoromethyl)-2-pyridinyl]ethyl}-3-nitrobenzamide, reference compound] | – | – | zero (zero effectiveness is defined as less than 10% effectiveness) | – | – | – | – | pest or weed control at 250 g/ha (Botrytis cinerea; 250 g/ha): < 10%
O=C(NCCc1ncc(C(F)(F)F)cc1Cl)c1ccccc1OC(F)F [Compound A-187] | good to average | good to average | – | good to average | – | – | – | –
O=C(NCCc1ncc(C(F)(F)F)cc1Cl)c1ccccc1Br [Compound A-46] | good to average | good to average | good to average | good to average | – | – | – | effectiveness (percentage of control relative to untreated plants) (Pyrenophora teres; 250 g/ha): good to average; effectiveness (percentage of control relative to untreated plants) (Botrytis cinerea; 250 g/ha): good to average
O=C(NCCc1ncc(C(F)(F)F)cc1Cl)c1ccccc1I [Compound A-45] | good to average | good to average | good to average | good to average | – | – | – | effectiveness (percentage of control relative to untreated plants) (Pyrenophora teres; 250 g/ha): good to average; effectiveness (percentage of control relative to untreated plants) (Botrytis cinerea; 250 g/ha): good to average
O=C(NCCc1ncc(C(F)(F)F)cc1Cl)c1ccc(Cl)cc1Cl [Compound A-6] | – | – | – | – | good to average | good to average | good to average | –
